Laboratory results published in paper PMC8652005 (2021).

Legend:
[1] = test system: add_P1 (RNA, riboswitch) GGGAAGAUAUAAUCCUAAUGAUAUGGUUUGGGAGUUUCUACCAAGAGCCUUAAACUCUUGAUUAUCUUCUCUGUCGCUUUAUCCCAAAUUUUAUAAAGAGAAGACUCAUGAAU; test: ITC; conditions: 100 mM KCl, 10 mM MgCl2; 10 mM HEPES, pH 7.5, room temperature
[2] = test system: add_FL (RNA, riboswitch) GGGAAGAAACGCUUCAUAUAAUCCUAAUGAUAUGGUUUGGGAGUUUCUACCAAGAGCCUUAAACUCUUGAUUAUGAAGUCUGUCGCUUUAUCCCAAAUUUUAUAAAGAGAAGACUCAUGAAU; test: ITC; conditions: 100 mM KCl, 10 mM MgCl2; 10 mM HEPES, pH 7.5, room temperature

Kd [1]: 67.6 ± 0.53 nM
Kd [2]: 90.0 ± 0.96 nM
SMILES: Nc1ncnc2[nH]cnc12
